Results taken from US9079964B2, “Immunoassay for cyclopropylindole based synthetic cannabinoids, metabolites and derivatives thereof” (Randox Laboratories Limited, priority 2013, dated 2015).

How the values were obtained:
[1] = tested on: antiserum raised to Immunogen I; assay: UR144/XLR11 Synthetic Cannabinoids (Spice) ELISA, antiserum raised to Immunogen I (third bleed); assay type: binding, sheep; conditions: for Concentration of compounds that elicit a negative response: Table 4, negative response at this concentration; for % Cross-Reactivity: Table 4, relative to UR144 N-Pentanoic Acid = 100
Method: (§1) The wells of an enhanced binding 96 well polystyrene microtiter plate were coated with IgG fraction of antiserum raised to Immunogen I or II, diluted in 10 mM Tris, pH 8.5 (125 μl/well). The appropriate antibody coating dilution was determined using standard ELISA checkerboard techniques. The plate was incubated overnight at 4° C., washed 4 times over 10 minutes with Tris buffered saline containing Tween20 (TBST) and tapped dry. Standard solutions (UR-144 N-pentanoic acid) were applied at 0, 0.625, 1.25, 2.5, 5, 10, 20 and 40 ng/ml and 50 μl of each was added to the appropriate wells. 75 μl of conjugate (appropriate hapten-HRP) diluted in Tris buffer (pH 7.2) containing EDTA, D-mannitol, sucrose, thimerosol and BSA, was added to each of the wells. The appropriate dilution of conjugate was also determined using standard ELISA checkerboard techniques. The plate was incubated at 25° C. for 1 hour. Excess unbound conjugate was removed by washing 6 times over a ten minute period with TBST. 125 μl of tetramethylbenzidine (TMB) substrate solution was added to each well of the plate that was then incubated for 20 minutes in the dark at room temperature. The reaction was terminated by addition of 125 μl of 0.2 M H2SO4 to each well. The absorbance was then measured at 450 nm using a microtiter plate reader. The data are inputted to a computer program called ‘KC Junior’ (Biotek). It gives a 4 parameter fit curve and allows the calculation of concentrations between the standard runs. This program is used to calculate the IC50 values by dividing the 0 ng/ml optical density (OD) value by 2 and obtaining the concentration value from the curve for this OD.
(§2) Cross-reactivity was calculated according to the following formula: % CR=IC50, UR-144 N-pentanoic acid/IC50, cross reactant×100 Where % CR is the percentage cross-reactivity, IC50, UR-144 N-pentanoic acid is the concentration of UR-144 N-pentanoic acid that causes 50% displacement of signal and IC50, cross reactant is the concentration of the cannabinoid/metabolite/selected molecule that causes 50% displacement of signal.
A further assay was carried out in accordance with the protocol described in Example 9 using Immunogen I.

[2] = tested on: antiserum raised to Immunogen I; assay: Competitive ELISA with IgG fraction of antiserum raised to Immunogen I (second bleed) and hapten 1-HRP detecting agent; assay type: binding, sheep; conditions: Table 2; for % B/BO: cross-reactant at 100 ng/ml (single level); for IC50 / % Cross-reactivity (CR): cross-reactant tested at 100 ng/ml; for % Cross-reactivity (CR): relative to UR-144 N-pentanoic acid
Method: as §1, §2
In order to determine the specificity of the competitive ELISAs, standard solutions of a range of structurally related synthetic cannabinoids and their metabolites were prepared in TBST (Tris-Buffered Saline and Tween 20). Using the calibration curves generated and employing a single level of cross reactants, these were used to determine the cross-reactivity of the immunoassays with these substances.

Row | Compound | Concentration of compounds that elicit a negative response [1] | % B/BO [2] | IC50 [2] | % Cross-reactivity (CR) [2] | % Cross-Reactivity [1]
1 | CCCCCn1c(O)c(C(=O)c2cccc3ccccc23)c2ccccc21 [2-OH JWH-018] | 100 ng/mL | – | – | – | –
2 | CCCCn1c(O)c(C(=O)c2cccc3ccccc23)c2ccccc21 [2-OH JWH-073] | 100 ng/mL | – | – | – | –
3 | CCCCCn1cc(C(=O)c2cccc3ccccc23)c2c(O)cccc21 [4-OH JWH-018] | 100 ng/mL | – | – | – | –
4 | CCCCn1cc(C(=O)c2cccc3ccccc23)c2c(O)cccc21 [4-OH JWH-073] | 100 ng/mL | – | – | – | –
5 | CCCCn1cc(C(=O)c2cccc3ccccc23)c2cc(O)ccc21 [5-OH JWH-073] | 100 ng/mL | – | – | – | –
6 | CCCCn1cc(C(=O)c2cccc3ccccc23)c2ccc(O)cc21 [6-OH JWH-073] | 100 ng/mL | – | – | – | –
7 | CCCCCn1cc(C(=O)c2cccc3ccccc23)c2cccc(O)c21 [7-OH JWH-018] | 100 ng/mL | – | – | – | –
8 | CCCCn1cc(C(=O)c2cccc3ccccc23)c2cccc(O)c21 [7-OH JWH-073] | 100 ng/mL | – | – | – | –
9 | O=C(c1cn(CCCCCO)c2ccccc12)C12CC3CC(CC(C3)C1)C2 [AB001 N-pentanol] | 100 ng/mL | – | – | – | –
10 | O=C(O)CCCCn1cc(C(=O)C23CC4CC(CC(C4)C2)C3)c2ccccc21 [AB001N-pentanoic acid] | 100 ng/mL | – | – | – | –
11 | O=C(NC12CC3CC(CC(C3)C1)C2)c1nn(CCCCCF)c2ccccc12 [AKB48 N (5-fluoropentyl) analog] | 100 ng/mL | – | – | – | –
12 | O=C(c1ccccc1I)c1cn(CCCCCF)c2ccccc12 [AM694] | 100 ng/mL | 79.00% | >0.1 µg/mL | <3.0% | –
13 | CN1CCCCC1Cn1cc(C(=O)c2cccc3ccccc23)c2ccccc21 (centres unmarked) [AM1220] | – | 73.59% | >0.1 µg/mL | <3.0% | –
14 | CN1CCCCC1Cn1cc(C(=O)c2cc([N+](=O)[O-])ccc2I)c2ccccc21 (centres unmarked) [AM1241] | 100 ng/mL | 77.96% | >0.1 µg/mL | <3.0% | –
15 | O=C(c1cccc2ccccc12)c1cn(CCCCCF)c2ccccc12 [AM2201] | 100 ng/mL | 85.58% | >0.1 µg/mL | <3.0% | –
16 | CCCn1c(C)c(C(=O)c2cccc3ccccc23)c2ccccc21 [JWH-015] | 100 ng/mL | 89.77% | >0.1 µg/mL | <3.0% | –
17 | CCCCCn1cc(C(=O)c2cccc3ccccc23)c2cc(O)ccc21 [JWH-018 (5 hydroxyindole)] | 100 ng/mL | 94.61% | >0.1 µg/mL | <3.0% | –
18 | CCCCCn1cc(C(=O)c2cccc3ccccc23)c2ccc(O)cc21 [JWH-018 (6 hydroxyindole)] | 100 ng/mL | 93.92% | >0.1 µg/mL | <3.0% | –
19 | O=C(c1cccc2ccccc12)c1cn(CCCCCO)c2ccccc12 [JWH-018 N (5 hydroxypentyl) metabolite, 1-(5-hydroxypentyl)-1H-indol-3-yl(naphthalen-1-yl)methanone] | 100 ng/mL | 87.56% | >0.1 µg/mL | <3.0% | –
20 | O=C(O)CCCCn1cc(C(=O)c2cccc3ccccc23)c2ccccc21 [JWH-018 N (carboxybutyl) metabolite] | – | 89.14% | >0.1 µg/mL | <3.0% | –
21 | CC(O)CCCn1cc(C(=O)c2cccc3ccccc23)c2ccccc21 (centres unmarked) [JWH-018 N-(4-hydroxypentyl) metabolite, 1-(4-hydroxypentyl)-1H-indol-3-yl(napthalen-1-yl)-methanone] | 100 ng/mL | – | – | – | –
22 | O=C(O)CCCCn1cc(-c2cccc3ccccc23)c2ccccc21 [JWH-018 N-pentanoic acid metabolite, 5-(3-(1-naphthyl)-1H-indol-1-yl)pentanoic acid] | 100 ng/mL | – | – | – | –

Row | Compound | Concentration of compounds that elicit a negative response [1] | % B/BO [2] | IC50 [2] | % Cross-reactivity (CR) [2] | % Cross-Reactivity [1]
23 | CCCCCn1cc(C(=O)NC23CC4CC(CC(C4)C2)C3)c2ccccc21 [JWH-018 adamantyl carboxamide] | 10 ng/mL | – | – | – | –
24 | CCCCCn1cc(C(=O)C23CC4CC(CC(C4)C2)C3)c2ccccc21 [JWH-018 adamantyl] | 100 ng/mL | – | – | – | –
25 | CCCCCn1cc(C(=O)c2cccc3ccccc23)c2ccccc21 [JWH-018] | – | 87.89% | >0.1 µg/mL | <3.0% | –
26 | CCCCCCn1cc(C(=O)c2cccc3ccccc23)c2cc(O)ccc21 [JWH-019 5-hydroxyindole metabolite] | 100 ng/mL | – | – | – | –
27 | CCCCCCn1cc(C(=O)c2cccc3ccccc23)c2ccccc21 [JWH-019] | – | 87.30% | >0.1 µg/mL | <3.0% | –
28 | C=CCCCn1cc(C(=O)c2cccc3ccccc23)c2ccccc21 [JWH-022] | 100 ng/mL | 91.83% | >0.1 µg/mL | <3.0% | –
29 | CC(O)CCn1cc(C(=O)c2cccc3ccccc23)c2ccccc21 (centres unmarked) [JWH-073 N-(3-hydroxybutyl) metabolite, 1-(3-hydroxybutyl)-1H-indol-3-yl(napthalen-1-yl)methanone] | 100 ng/mL | – | – | – | –
30 | O=C(c1cccc2ccccc12)c1cn(CCCCO)c2ccccc12 [JWH-073 N-(4-hydroxybutyl) metabolite, 1-(4-hydroxybutyl)-1H-indol-3-yl(naphthalen-1-yl)methanone] | 100 ng/mL | – | – | – | –
31 | O=C(O)CCCn1cc(-c2cccc3ccccc23)c2ccccc21 [JWH-073 N-butanoic acid metabolite, 4-(3-(1-naphthyl)-1H-indol-1-yl)butanoic acid] | 100 ng/mL | – | – | – | –
32 | CCCCn1cc(C(=O)c2cccc3ccccc23)c2ccccc21 [JWH-073] | 100 ng/mL | 90.44% | >0.1 µg/mL | <3.0% | –
33 | COc1ccc(C(=O)c2cn(CCCCCO)c3ccccc23)c2ccccc12 [JWH-081 N-(5-hydroxypentyl) metabolite] | 100 ng/mL | – | – | – | –
34 | CCCCCn1cc(C(=O)c2ccc(OC)c3ccccc23)c2ccccc21 [JWH-081] | 100 ng/mL | 97.10% | >0.1 µg/mL | <3.0% | –
35 | CCCCCn1c(C)c(C(=O)c2ccc(OC)c3ccccc23)c2ccccc21 [JWH-098] | 100 ng/mL | 93.94% | >0.1 µg/mL | <3.0% | –
36 | CCCCCn1cc(C(=O)c2ccc(CC)c3ccccc23)c2ccccc21 [JWH-210] | – | 95.89% | >0.1 µg/mL | <3.0% | –
37 | COc1ccccc1CC(=O)c1cn(CCCCCC(=O)O)c2ccccc12 [JWH-250 N-(5-carboxypentyl) metabolite] | 100 ng/mL | – | – | – | –
38 | COc1ccccc1CC(=O)c1cn(CCCCCO)c2ccccc12 [JWH-250 N-(5-hydroxypentyl) metabolite] | 100 ng/mL | – | – | – | –
39 | O=C(c1cccc2ccccc12)c1c[nH]c2ccccc12 [N-desalkyl JWH-018, 3-(1-naphthoyl) indole] | 100 ng/mL | – | – | – | –
40 | O=C(NC12CC3CC(CC(C3)C1)C2)c1cn(CCCCCF)c2ccccc12 [STS135] | 100 ng/mL | – | – | – | –
41 | CC(O)CCCn1cc(C(=O)C2C(C)(C)C2(C)C)c2ccccc21 (centres unmarked) [UR144 N-(4-hydroxypentyl) metabolite] | – | – | – | – | 107%
42 | C=C(C)C(C)(C)CC(=O)c1cn(CCCCCF)c2ccccc12 [XLR11 Degradant] | – | – | – | – | 3%
43 | CC(O)CCCn1cc(C(=O)C2C(C)(C)C2(C)C)c2ccccc21 (centres unmarked) [XLR11 N-(4-hydroxypentyl) metabolite] | – | – | – | – | 2%
